Reference: patent US12582721B2, “Molybdenum-based feed supplement for bees” (UNIVERSITE DE VERSAILLES—SAINT-QUENTIN-EN-YVELINES, priority 2020, dated 2026)

Test system: bee colonies
Experiment: 4th test in the hives: winter mortality of colonies, California 2020
Assay type: in vivo, bees
Details: counted Dec. 31, 2020, 55 hives, Batch 1 27.3%
Experimental: A second treatment campaign was carried out in the autumn-winter 2020 in apiaries located in California, near San Francisco. This region is particularly vulnerable to winter mortality of bee colonies which can reach as high as 80% in some years.
220 hives distributed over 13 different apiaries in California to the south of San Francisco were selected. Each apiary comprised between 8 and 24 hives. The bees were of different types: 165 hives of Wildflower bees (VSH-Italian) and 55 hives of Beeweaver bees (VSH-Carniolan).
The hives were Langstroth 2 body type hives (15 frames compared to 10 for Dadant hives in Europe). […] 20, 2020 and Oct. 12, 2020.
1 apiary only contained Wildflower type bees. 2 apiaries only contained Beeweaver type bees. The other 10 apiaries comprised Wildflower and Beeweaver bees that were evenly distributed between the 4 batches.
The product Li—Mo2O4-EDTA was introduced on Sep. 20, 2020, and/or on Oct. 12, 2020 by syringe in the form of a concentrated aqueous solution (0.8 g/L) in a sugar syrup into the frame feeder. 10 mL of this solution were introduced and dispersed in 3.5 liters of sugar syrup at 65% sugar and introduced into the hive. […] The control hives only received sugar syrup.
The dead colonies were counted on Dec. 31, 2020. A total of 28 colonies were dead on 31 Dec. 2020, that is 12.73% of the total. The mortality rate is identical for Wildflower bees (21/165) and Beeweaver bees (7/55). The mortality per batch is distributed as follows: • Batch 1: 15 hives/55 hives, that is 27.3% losses • Batch 2: 0 hive/55 hives, that is 0% losses • Batch 3: 10 hives/55 hives, that is 18.2% losses • Batch 4: 3 hives/55 hives, that is 5.5% losses.

## O.O.O.O.O.O.O=C([O-])CN(CCN(CC(=O)[O-])CC(=O)[O-])CC(=O)[O-].[Li+].[Li+].[O]=[Mo+]12[O][Mo+]1(=[O])[O]2 [Li—Mo2O4-EDTA, Li2[Mo2O4 (EDTA)]·6H2O]
Batch 2: fed on Sep. 20, 2020, 8 mg
  Mortality of colonies (losses): 0%
Batch 3: fed on Oct. 12, 2020, 8 mg
  Mortality of colonies (losses): 18.2%
Batch 4: fed on Sep. 20, 2020 and Oct. 12, 2020
  Mortality of colonies (losses): 5.5%
